Biological target: HSD17B13 (Homo sapiens (Human), UniProt Q7Z5P4)
Experiment: LC/MS estrone detection assay: conversion of estradiol to estrone by HSD17B13
Type: biochemical
Conditions: 4 μM estradiol, 6 mM NAD+, 30 nM HSD17B13 enzyme (E. coli expressed His-tagged), 2 hours at 26.5° C.
Protocol: The liquid chromatography/mass spectrometry (LC/MS) estrone detection assay monitors the conversion of estradiol to estrone by HSD17B13. This assay was undertaken in a 96wp format (Eppendorf deep well Plate 96/500) in an 80 μl reaction volume containing: 4 μM of Estradiol (E2; Cayman; Ser. No. 10/006,315), 6 mM NAD+(Sigma; #N0623) and 30 nM HSD17B13 enzyme (in-house; E. coli expressed His-tagged, purified, soluble protein) in a reaction containing […] potassium phosphate buffer pH 7.4, with 0.5% vehicle (DMSO). Reactions were incubated for 2 hours at 26.5° C., and estradiol (E2) conversion to estrone (E1) was quantitated by LC-MS/MS based analyte detection for both E2 and E1 using LCMS grade reagents.
Reactions were terminated by the addition of two volumes of acetonitrile (MeCN; LCMS grade; CAS #75/05/8) containing deuterated (D4)-E1 used as internal standard (Clear Synth; #CS-T-54273; 500 ng/mL final concentration). Samples were applied to pre-prepared Bond Elut-C18 extraction cartridges (3 mL; Agilent; Ser. No. 12/102,028), washed and eluted in MeCN. Eluates were dried under nitrogen and re-suspended in 60% methanol (LCMS grade methanol; CAS #67/56/1) before submission for analysis. Aqueous linearity for E2 and E1 were included for quantification.
Analysis of samples was undertaken on a XBridge BEH C18 column (Waters; #186003033) using 0.1% Diethyl Amine in MeCN (mobile phase A; DEA CAS #109-89-7) and 0.1% Diethyl Amine in milli-Q water (mobile phase B) in a 3 min gradient allowing 25% B. Analytes were detected in negative mode using MRM analysis, with E2 having a RT of 1.85 min and E1 having a RT of 2 min. Activity of the enzyme, in the absence of NAD^+, was used to evaluate specificity of conversion. Enzyme activity in the presence of test samples was expressed as a percentage of the uninhibited enzyme activity, and plotted versus inhibitor concentration. Non-linear regression was performed using a four-parameter logistic model and GraphPad Prism software (GraphPad Software, La Jolla, Calif.). All assessments were undertaken in duplicate evaluations and pooled during extraction process and subsequently injected as duplicates for LC-MS/MS analysis.

HSD17B13, sequence (Q7Z5P4 20-300): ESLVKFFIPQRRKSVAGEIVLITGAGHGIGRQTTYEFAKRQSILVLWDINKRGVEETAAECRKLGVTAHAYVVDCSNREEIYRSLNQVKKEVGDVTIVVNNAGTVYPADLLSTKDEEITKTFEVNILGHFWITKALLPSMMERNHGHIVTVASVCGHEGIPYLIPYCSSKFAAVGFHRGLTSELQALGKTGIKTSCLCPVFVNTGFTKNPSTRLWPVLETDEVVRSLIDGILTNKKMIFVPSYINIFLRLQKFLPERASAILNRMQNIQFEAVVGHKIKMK

| Structure (SMILES) | IC50 |
| --- | --- |
| O=C(Nc1cccc2ncn([C@@H]3C[C@H]3c3ccccc3)c(=O)c12)c1cc(Cl)c(O)c(Cl)c1 (racemic) [Example 102, Rac-3,5-dichloro-4-hydroxy-N-(4-oxo-3-((1R,2S)-2-phenylcyclopropyl)-3,4-dihydroquinazolin-5-yl)benzamide] | 1000 to 10000 nM |
| O=C(Nc1cccc2ncn([C@@H]3CC[C@H]3c3ccccc3)c(=O)c12)c1cc(Cl)c(O)c(Cl)n1 (racemic) [Example 175, rac-4,6-dichloro-5-hydroxy-N-(4-oxo-3-((1R,2S)-2-phenylcyclobutyl)-3,4-dihydroquinazolin-5-yl)picolinamide] | 100 to 500 nM |
| O=C(Nc1cccc2ncn(Cc3ccccc3)c(=O)c12)c1cc(Cl)c(O)c(Cl)c1 [Example 1, N-(3-benzyl-4-oxo-3,4-dihydroquinazolin-5-yl)-3,5-dichloro-4-hydroxybenzamide] | 100 to 500 nM |
| O=C(Nc1cccc2ncn(Cc3ccccc3OC(F)(F)F)c(=O)c12)c1cc(Cl)c(O)c(Cl)c1 [Example 2, 3,5-dichloro-4-hydroxy-N-(4-oxo-3-(2-(trifluoromethoxy)benzyl)-3,4-dihydroquinazolin-5-yl)benzamide] | ≤ 100 nM |
| O=C(Nc1cccc2ncn(CC3CC3)c(=O)c12)c1cc(Cl)c(O)c(Cl)c1 [Example 3, 3,5-dichloro-N-(3-(cyclopropylmethyl)-4-oxo-3,4-dihydroquinazolin-5-yl)-4-hydroxybenzamide] | 100 to 500 nM |
| O=C(Nc1cccc2ncn(Cc3cc[nH]c(=O)c3)c(=O)c12)c1cc(Cl)c(O)c(Cl)c1 [Example 4, 3,5-dichloro-4-hydroxy-N-(3-((2-hydroxypyridin-4-yl)methyl)-4-oxo-3,4-dihydroquinazolin-5-yl)benzamide] | 1000 to 10000 nM |
| COc1ccccc1Cn1cnc2cccc(NC(=O)c3cc(Cl)c(O)c(Cl)c3)c2c1=O [Example 5, 3,5-dichloro-4-hydroxy-N-(3-(2-methoxybenzyl)-4-oxo-3,4-dihydroquinazolin-5-yl)benzamide] | 100 to 500 nM |
| O=C(Nc1cccc2ncn(Cc3ccc(C(F)(F)F)cc3)c(=O)c12)c1cc(Cl)c(O)c(Cl)c1 [Example 6, 3,5-dichloro-4-hydroxy-N-(4-oxo-3-(4-(trifluoromethyl)benzyl)-3,4-dihydroquinazolin-5-yl)benzamide] | ≤ 100 nM |
| O=C(Nc1cccc2ncn(Cc3ccc(F)cc3)c(=O)c12)c1cc(Cl)c(O)c(Cl)c1 [Example 7, 3,5-dichloro-N-(3-(4-fluorobenzyl)-4-oxo-3,4-dihydroquinazolin-5-yl)-4-hydroxybenzamide] | 100 to 500 nM |
| O=C(Nc1cccc2ncn(Cc3ccc(OC(F)(F)F)cc3)c(=O)c12)c1cc(Cl)c(O)c(Cl)c1 [Example 8, 3,5-dichloro-4-hydroxy-N-(4-oxo-3-(4-(trifluoromethoxy)benzyl)-3,4-dihydroquinazolin-5-yl)benzamide] | 100 to 500 nM |
| O=C(Nc1cccc2ncn(Cc3ccccc3F)c(=O)c12)c1cc(Cl)c(O)c(Cl)c1 [Example 9, 3,5-dichloro-N-(3-(2-fluorobenzyl)-4-oxo-3,4-dihydroquinazolin-5-yl)-4-hydroxybenzamide] | 100 to 500 nM |
| O=C(Nc1cccc2ncn(Cc3cccc(OC(F)(F)F)c3)c(=O)c12)c1cc(Cl)c(O)c(Cl)c1 [Example 10, 3,5-dichloro-4-hydroxy-N-(4-oxo-3-(3-(trifluoromethoxy)benzyl)-3,4-dihydroquinazolin-5-yl)benzamide] | ≤ 100 nM |
| O=C(Nc1cccc2ncn(Cc3cccc(C(F)(F)F)c3)c(=O)c12)c1cc(Cl)c(O)c(Cl)c1 [Example 11, 3,5-dichloro-4-hydroxy-N-(4-oxo-3-(3-(trifluoromethyl)benzyl)-3,4-dihydroquinazolin-5-yl)benzamide] | ≤ 100 nM |
| C[C@@H](c1cccc(F)c1)n1cnc2cccc(NC(=O)c3cc(Cl)c(O)c(Cl)c3)c2c1=O [Example 12, (S)-3,5-dichloro-N-(3-(1-(3-fluorophenyl)ethyl)-4-oxo-3,4-dihydroquinazolin-5-yl)-4-hydroxybenzamide] | ≤ 100 nM |
| O=C(Nc1cccc2ncn(Cc3ccncc3F)c(=O)c12)c1cc(Cl)c(O)c(Cl)c1 [Example 13, 3,5-dichloro-N-(3-((3-fluoropyridin-4-yl)methyl)-4-oxo-3,4-dihydroquinazolin-5-yl)-4-hydroxybenzamide] | 500 to 1000 nM |
| O=C(Nc1cccc2ncn(Cc3nncs3)c(=O)c12)c1cc(Cl)c(O)c(Cl)c1 [Example 14, N-(3-((1,3,4-thiadiazol-2-yl)methyl)-4-oxo-3,4-dihydroquinazolin-5-yl)-3,5-dichloro-4-hydroxybenzamide] | 1000 to 10000 nM |
| O=C(Nc1cccc2ncn(Cc3cocn3)c(=O)c12)c1cc(Cl)c(O)c(Cl)c1 [Example 15, 3,5-dichloro-4-hydroxy-N-(3-(oxazol-4-ylmethyl)-4-oxo-3,4-dihydroquinazolin-5-yl)benzamide] | 500 to 1000 nM |
| O=C(Nc1cccc2ncn(Cc3cccc(F)c3)c(=O)c12)c1cc(Cl)c(O)c(Cl)c1 [Example 16, 3,5-dichloro-N-(3-(3-fluorobenzyl)-4-oxo-3,4-dihydroquinazolin-5-yl)-4-hydroxybenzamide] | 100 to 500 nM |
| O=C(Nc1cccc2ncn(Cc3ccncc3)c(=O)c12)c1cc(Cl)c(O)c(Cl)c1 [Example 17, 3,5-dichloro-4-hydroxy-N-(4-oxo-3-(pyridin-4-ylmethyl)-3,4-dihydroquinazolin-5-yl)benzamide] | 1000 to 10000 nM |
| O=C(Nc1cccc2ncn(Cc3ccccc3C(F)(F)F)c(=O)c12)c1cc(Cl)c(O)c(Cl)c1 [Example 18, 3,5-dichloro-4-hydroxy-N-(4-oxo-3-(2-(trifluoromethyl)benzyl)-3,4-dihydroquinazolin-5-yl)benzamide] | ≤ 100 nM |
| O=C(Nc1cccc2ncn(Cc3ccc(C(F)(F)F)nc3)c(=O)c12)c1cc(Cl)c(O)c(Cl)c1 [Example 19, 3,5-dichloro-4-hydroxy-N-(4-oxo-3-((6-(trifluoromethyl)pyridin-3-yl)methyl)-3,4-dihydroquinazolin-5-yl)benzamide] | 100 to 500 nM |
| O=C(Nc1cccc2ncn(C3(c4ccccc4)CC3)c(=O)c12)c1cc(Cl)c(O)c(Cl)c1 [Example 20, 3,5-dichloro-4-hydroxy-N-(4-oxo-3-(1-phenylcyclopropyl)-3,4-dihydroquinazolin-5-yl) benzamide] | 1000 to 10000 nM |
| O=C(Nc1cccc2ncn(C3(c4ccccc4F)CC3)c(=O)c12)c1cc(Cl)c(O)c(Cl)c1 [Example 21, 3,5-dichloro-N-(3-(1-(2-fluorophenyl)cyclopropyl)-4-oxo-3,4-dihydroquinazolin-5-yl)-4-hydroxybenzamide] | ≤ 100 nM |
| O=C(Nc1cccc2ncn(Cc3cccc(F)c3)c(=O)c12)c1cc(Cl)c(O)c(Cl)n1 [Example 22, 4,6-dichloro-N-{3-[(3-fluorophenyl)methyl]-4-oxo-3,4-dihydroquinazolin-5-yl}-5-hydroxypyridine-2-carboxamide] | ≤ 100 nM |
| O=C(Nc1cccc2ncn(Cc3ccccc3OC(F)(F)F)c(=O)c12)c1cc(Cl)c(O)c(Cl)n1 [Example 23, 4,6-dichloro-5-hydroxy-N-(4-oxo-3-{[2-(trifluoromethoxy)phenyl]methyl}-3,4-dihydroquinazolin-5-yl)pyridine-2-carboxamide] | 100 to 500 nM |
| O=C(Nc1ncsc1C(=O)NCc1ccccc1F)c1cc(Cl)c(O)c(Cl)c1 [Example 24, 4-(3,5-dichloro-4-hydroxybenzamido)-N-(2-fluorobenzyl)thiazole-5-carboxamide] | 1000 to 10000 nM |

— patent publication US20230278981A1, “DICHLOROPHENOL HSD17B13 INHIBITORS AND USES THEREOF” (INIPHARM, INC., priority 2020, published 2023)
